Source: patent US4395274A, “Microbicidal agent and its use” (Bayer Aktiengesellschaft, priority 1979, dated 1983)
Where two headings read alike, the source gives them in different places.

Tests used:
[1] = as a formaldehyde depot substance; cited from earlier work
Aspergillus niger = assay: minimum inhibitory concentration (MIC) in agar culture media; synergism by Kull et al; assay type: cell-based; details: for X (synergism index by Kull et al): X=1 additivity, X>1 antagonism, X<1 synergism
Method: (§1) The MIC values of A and B are compared with the MIC values of mixtures A/B.
(§2) The synergism is determined according to the method described by Kull et al (F. C. Kull, P. C. Eismann, H. D. Sylvestrowicz, R. L. Mayer, Applied Microbiol. 9, 538 to 541, 1961). The following symbols apply here: [formula] X=1 denotes additivity X>1 denotes antagonism
(§3) Qa =concentration of compound A, which represents the MIC
(§4) Qb =concentration of compound B, which represents the MIC
(§5) QA =the amount of compound A in the concentration of A/B, which prevents the growth of microbes
(§6) QB =the amount of compound B in the concentration of A/B which prevents the growth of microbes.

Coniophora cerebella = assay: as above; assay type: cell-based; details: for X (synergism index by Kull et al): X=1 additivity, X>1 antagonism, X<1 synergism
Method: as §1, §2, §3, §4, §5, §6

Alternaria tenuis = assay: as above; assay type: cell-based; details: for X (synergism index by Kull et al): X=1 additivity, X>1 antagonism, X<1 synergism
Method: as §1, §2, §3, §4, §5, §6

Pullularia pullulans = assay: as above; assay type: cell-based; details: for X (synergism index by Kull et al): X=1 additivity, X>1 antagonism, X<1 synergism
Method: as §1, §2, §3, §4, §5, §6

Trichoderma viride = assay: as above; assay type: cell-based; details: for X (synergism index by Kull et al): X=1 additivity, X>1 antagonism, X<1 synergism
Method: as §1, §2, §3, §4, §5, §6

Chaetomium globosum = assay: as above; assay type: cell-based; details: for X (synergism index by Kull et al): X=1 additivity, X>1 antagonism, X<1 synergism
Method: as §1, §2, §3, §4, §5, §6

[2] = tested on: Chaetomium globosum Kunze and Aspergillus niger; assay: mould resistance of soap-wrapping paper; details: 0.5% by weight of paper added to pulp
Method: (§7) Based on the weight of the paper (90 to 100 g/m^2) 0.5% of A/B=6/1 is homogeneously mixed under a pulp (density 1%, pH value 4.8) having the following composition:
The mould resistance and the antimicrobial activity of the soap-wrapping paper obtained in this manner is tested in the following way:
Circular paper test specimens (diameter 4 cm) are placed in a nutrient medium in Petri dishes, the medium having previously been infested with the test fungi Chaetomium globosum Kunze and Aspergillus niger.

rats = details: comparison compound; cited from earlier work
fungus = assay: paper production: pulp feeding system, losses of active compound, effluent and discharged air; details: 0.5% by weight of paper added to the pulp
Method: as §7
If, however, as is customary, owing to the lack up until now of usable alternatives, 0.5% of sodium pentachlorophenolate (related to the weight of the paper) is added to the pulp, losses of active compound amounting to more than 50% occur (approx. 25% are found in the effluent and approx. 25% in the outgoing air).

[3] = A differs between Example 1 and Example 6

Structure (SMILES)	QA (amount of compound A in the concentration of A/B which prevents the growth of microbes) (Aspergillus niger; [3])	X (synergism index by Kull et al) (Aspergillus niger)	MIC (Aspergillus niger; agar culture media)	QA (amount of compound A in the concentration of A/B which prevents the growth of microbes) (Coniophora cerebella; [3])	X (synergism index by Kull et al) (Coniophora cerebella)	MIC (Coniophora cerebella; agar culture media) [µg/mL]	X (synergism index by Kull et al) (Alternaria tenuis)	MIC (Alternaria tenuis; agar culture media) [µg/mL]	QA (amount of compound A in the concentration of A/B which prevents the growth of microbes) (Pullularia pullulans; [3])	X (synergism index by Kull et al) (Pullularia pullulans)	MIC (Pullularia pullulans; agar culture media)	QA (amount of compound A in the concentration of A/B which prevents the growth of microbes) (Trichoderma viride; [3])	X (synergism index by Kull et al) (Trichoderma viride)	MIC (Trichoderma viride; agar culture media)	QA (amount of compound A in the concentration of A/B which prevents the growth of microbes) (Chaetomium globosum; [3])	X (synergism index by Kull et al) (Chaetomium globosum)	MIC (Chaetomium globosum; agar culture media)	other results
CN1CSC(=S)N(C)C1 [3,5-dimethyl-tetrahydro-1,3,5-thiadiazine-2-thione]																		stability [1]: only moderately stable
Oc1ccc(Cl)cc1Cc1cc(Cl)ccc1O [A/B 100/0 (Example 1), (2,2'-dihydroxy-5,5'-dichloro)-diphenyl-methane]	20	1	20 µg/mL	10	1	10	1	20	20	1	20 µg/mL	50	1	50 µg/mL	50	1	50 µg/mL	MIC (Aspergillus niger; Aspergillus niger, A differs between Example 1 and Example 6, read-out: Qa (concentration of compound A, which represents the MIC)): 20 µg/mL; MIC (Coniophora cerebella; Coniophora cerebella, A differs between Example 1 and Example 6, read-out: Qa (concentration of compound A, which represents the MIC)): 10 µg/mL; QA (amount of compound A in the concentration of A/B which prevents the growth of microbes) (Alternaria tenuis): 20; MIC (Alternaria tenuis; Alternaria alternata, read-out: Qa (concentration of compound A, which represents the MIC)): 20 µg/mL; MIC (Pullularia pullulans; A differs between Example 1 and Example 6, read-out: Qa (concentration of compound A, which represents the MIC)): 20 µg/mL; MIC (Trichoderma viride; Trichoderma viride, A differs between Example 1 and Example 6, read-out: Qa (concentration of compound A, which represents the MIC)): 50 µg/mL; MIC (Chaetomium globosum; Chaetomium globosum, A differs between Example 1 and Example 6, read-out: Qa (concentration of compound A, which represents the MIC)): 50 µg/mL
Oc1ccccc1-c1ccccc1 [A/B 100/0 (Example 6), 2-hydroxy-diphenyl]	50	1	50 µg/mL	50	1	50			50	1	50 µg/mL	75	1	75 µg/mL	50	1	50 µg/mL	MIC (Aspergillus niger; Aspergillus niger, read-out: Qa (concentration of compound A, which represents the MIC)): 50 µg/mL; MIC (Coniophora cerebella; Coniophora cerebella, read-out: Qa (concentration of compound A, which represents the MIC)): 50 µg/mL; MIC (Pullularia pullulans; read-out: Qa (concentration of compound A, which represents the MIC)): 50 µg/mL; MIC (Trichoderma viride; Trichoderma viride, read-out: Qa (concentration of compound A, which represents the MIC)): 75 µg/mL; MIC (Chaetomium globosum; Chaetomium globosum, read-out: Qa (concentration of compound A, which represents the MIC)): 50 µg/mL
COC(=O)Nc1nc2ccccc2[nH]1 [B, benzimidazolyl-methyl-carbamate]		1	2,5 mg/l		1	2000	1	5000		1	0,25 mg/l		1	2,5 mg/l		1	0,4 mg/l	QB (amount of compound B in the concentration of A/B which prevents the growth of microbes) (Aspergillus niger): 2,5; MIC (Aspergillus niger; Aspergillus niger, read-out: Qb (concentration of compound B, which represents the MIC)): 2.5 µg/mL; QB (amount of compound B in the concentration of A/B which prevents the growth of microbes) (Coniophora cerebella): 2000; MIC (Coniophora cerebella; Coniophora cerebella, read-out: Qb (concentration of compound B, which represents the MIC)): 2000 µg/mL; QB (amount of compound B in the concentration of A/B which prevents the growth of microbes) (Alternaria tenuis): 5000; MIC (Alternaria tenuis; Alternaria alternata, read-out: Qb (concentration of compound B, which represents the MIC)): 5000 µg/mL; QB (amount of compound B in the concentration of A/B which prevents the growth of microbes) (Pullularia pullulans): 0,25; MIC (Pullularia pullulans; read-out: Qb (concentration of compound B, which represents the MIC)): 0.25 µg/mL; QB (amount of compound B in the concentration of A/B which prevents the growth of microbes) (Trichoderma viride): 2,5; MIC (Trichoderma viride; Trichoderma viride, read-out: Qb (concentration of compound B, which represents the MIC)): 2.5 µg/mL; QB (amount of compound B in the concentration of A/B which prevents the growth of microbes) (Chaetomium globosum): 0,4; MIC (Chaetomium globosum; Chaetomium globosum, read-out: Qb (concentration of compound B, which represents the MIC)): 0.4 µg/mL
[Na+].[O-]c1c(Cl)c(Cl)c(Cl)c(Cl)c1Cl [sodium pentachlorophenolate]																		mould-resistance of paper [2]: poor mould-resistance; LD50 oral (rats): 270 mg/kg; discharged air problems (fungus): disagreable odours, mucosal irritation; effluent toxicity (fungus): the effluent is toxic to fish
